Results taken from patent US4017534A, “16-Fluoro-11-deoxy-13-dihydro-prostaglandin” (American Cyanamid Company, priority 1975, dated 1977).
Like-named read-outs stand apart in the source and are kept apart here. Blank lines part the entries; values can stand above or below the compound they belong to.

How the values were obtained:
[1] = system: basal gastric acid secretion; test: Inhibition of total acid output in the acute gastric fistula rat; assay type: in vivo, Female Sprague-Dawley rats; conditions: for ED50: Rattus norvegicus
Protocol: The compounds of this invention are also useful as inhibitors of gastric acid secretion and peptic ulcer formation and may be used for the treatment of gastric hyperacidity, gastric erosion, and peptic ulcer. Inhibition of basal gastric acid secretion can be determined by the following procedure.
Female Sprague-Dawley rats weighting 140-160 grams are fasted in individual cages for 18-24 hours. The rats are then lightly anesthetized with ether and their front teeth extracted to avoid destruction of the plastic cannula. A midline incision is then made and the stomach and duodenum exposed. A flanged polyvinyl tube is inserted into the fundic portion of the stomach and secured with a purse string suture line using 4-O Mersilene. The rat is then dosed by injection of the compound into the duodenum (1.0 ml. per 100 gram body weight). After dosing, the abdominal wall and skin are closed using metal wound clips. The rate is replaced in a cage containing a longitudinal slit to allow the polyvinyl tube to hang freely. An 8 ml. plastic collecting tube is attached to the flanged cannula and hangs freely below the cage. The first 30 minute sample is discarded designating this time as zero. The collecting tube is attached again and samples removed at the end of 60 and 120 minutes. These samples are referred to as "A" and "B" in the table. The hourly samples are then transferred to a 15 ml. centrifuge and centrifuged for 5-10 minutes. Total and sediment volume are then recorded with the supernatent volume being used as volume of secretion. A 1 ml. or less aliquot is then removed and placed in a 50 ml. beaker containing 10 ml. of distilled water. This sample is then titrated using 0.01N NaOH to pH 7.0 using a Beckman zeromatic pH meter. Volume, titratable acidity (meg.L) and total acid output (μeg/hour) are recorded. Percent inhibition is determined by comparison with the appropriate control. Groups of three rats were used for preliminary testing, and groups of six rats were used for dose-response evaluations. All compounds are administered in a vehicle consisting of 0.5% methocel, 0.4% tween 80, and saline at a constant volume of 1 ml./100 gram rat. Samples are dispersed by sonification. Percent inhibition is calculated on basis of concurrent vehicle control.
In Table B which follows is given the effect on total acid output after 120 minutes of a 10 mg./kg. dose of representative ketals of this invention. For comparison the result obtained with the corresponding 9-oxo derivative, l 9-oxo-15(S)-hydroxyprostanoic acid is included.
Dose response evaluation in the acute gastric fistual rat assay further illustrates the pronounced advantage of the novel ketals of this invention as gastric acid secretion inhibitors relative to the corresponding 9-oxo derivative.

[2] = system: bronchospasms elicited by histamine; test: Bronchodilator activity (intraduodenal route) against histamine; assay type: in vivo, guinea pigs; set-up: key: 0: no activity; +: minimal activity; ++++: maximum activity; conditions: intraduodenal dose 10 mg./kg.
Protocol: (§1) The compounds of this invention are useful as bronchodilators for the treatment of asthma and chronic bronchitis. Bronchodilator activity is determined in guinea pigs against bronchospasms elicited by intravenous injections of 5-hydroxytryptamine, histamine or acetylcholine by the Konzett procedure. [See J. Lulling, P. Lievens, F. El Sayed and J. Prignot, Arzneimittel-Forschung, 18, 995 (1968).]
(§2) In Table A' which follows bronchodilator activity for representative compounds of this invention against one or more of three spasmogenic agents is reported. In this assay candidate compounds are suspended in 10% gum arabic solution and the suspension is administered by the intraduodenal route. The activity of the compound at any one dose is then investigated throughout the following hour (see above-cited reference, J. Lulling et al.). Potency is then reported as O, +, ++, +++, or ++++, wherein 0 represents no activity, + minimal activity and ++++ maximum activity.

cough = test: Cough induction by aerosol in human; assay type: in vivo
Protocol: (§3) The novel ketals of this invention also show bronchodilator activity when administered by aerosol to dogs wherein bronchoconstriction was induced by administration of pilocarpine. […] This is very important since coughing is one of the damaging side effects reported in the literature when prostaglandin aerosols are administered to human subjects. [See Y. Kawakami et al., European Journal Clinical Pharmacology, 6, 127 (1973); M. F. Cuthbert, Brit. Med. Journ. 723 (Dec. 20, 1969); H. Herxheimer and I. Roetscher, European Journal Clinical Pharmacology, 3, 123 (1971).]

[3] = system: bronchoconstriction induced by administration of pilocarpine; test: Bronchodilator activity by aerosol in dogs; assay type: in vivo; conditions: aerosol concentration 0.032%
Protocol: as §3

[4] = system: bronchospasms elicited by 5-hydroxytryptamine; test: Bronchodilator activity (intraduodenal route) against 5-hydroxytryptamine; assay type: in vivo, guinea pigs; set-up: key: 0: no activity; +: minimal activity; ++++: maximum activity
Protocol: as §1, §2

[5] = system: bronchospasms elicited by intravenous injections of 5-hydroxytryptamine; test: Bronchodilator activity (Konzett assay, intravenous) against 5-hydroxytryptamine; assay type: in vivo, guinea pigs; conditions: Cavia porcellus, guinea pig, spasmogen 5-hydroxytryptamine, read-out: Bronchodilator Activity (Konzett Assays) ED50, 5-hydroxytryptamine
Protocol: as §1
(§4) In Table A which follows bronchodilator activity for representative compounds of this invention against one or more of three spasmogenic agents is expressed as an ED50 determined from the results obtained with three logarithmic cumulative intravenous doses.

[6] = system: bronchospasms elicited by intravenous injections of acetylcholine; test: Bronchodilator activity (Konzett assay, intravenous) against acetylcholine; assay type: in vivo, guinea pigs; conditions: Cavia porcellus, guinea pig, spasmogen acetylcholine, read-out: Bronchodilator Activity (Konzett Assays) ED50, acetylcholine
Protocol: as §1, §4

[7] = 2 h, 10 mg./kg., intraduodenal route, rat, read-out: %-Inhibition of Total Acid Output After 120 Minutes
[8] = Table C, intraduodenal route, 1 hr. collection, read-out: ED50, 1 hr. collection (A)
[9] = Table C, intraduodenal route, 2 hr. collection, read-out: ED50, 2 hr. collection (B)

Compound: CCCCC[C@@H](CC[C@H]1CCC2(OCCCO2)[C@@H]1CCCCCCC(=O)OC)OC(C)=O [l methyl 9,9-(1,3-propylenedioxy)-15(S)-acetoxy-prostanoate]
inhibition in vivo at 10 mg/kg [1, 7]: 60%
ED50 [1, 8]: 6 mg/kg
ED50 [1, 9]: 6 mg/kg
Bronchodilator potency, Spasmogenic Agent Histamine [2]: +

Compound: l methyl 9,9-(2,2-dimethyl-1,3-propylenedioxy)-15(S)-acetoxy-prostenoate
%-Inhibition of Total Acid Output After 120 Minutes ([1]; 10 mg./kg., intraduodenal route, rat): 27%

induction of cough by aerosol (cough): ketone aerosol does
Compound: CCCCC[C@H](O)CC[C@H]1CCC(=O)[C@@H]1CCCCCCC(=O)O [l 9-oxo-15(S)-hydroxyprostanoic acid, 1-15(S)-hydroxy-9-oxo-prostanoic acid, reference compound]
inhibition in vivo at 12.5 mg/kg ([1]; 2 h, 12.5 mg./kg. dose, intraduodenal route, rat, read-out: %-Inhibition of Total Acid Output After 120 Minutes): 27%
ED50 [1, 8]: 18 mg/kg
ED50 [1, 9]: > 25 mg/kg
potency relative to the ketals ([1]; total acid output, Table B): significantly less potent than the ketals
bronchodilator activity by aerosol [3]: very weak

Compound: CCCCC[C@@H](CC[C@H]1CCC2(OCC(C)O2)[C@@H]1CCCCCCC(=O)OC)OC(C)=O (stereo partly drawn) [l methyl 9,9-(1-methylethylenedioxy)-15(S)-acetoxyprostanoate]
Bronchodilator potency, Spasmogenic Agent 5-Hydroxytryptamine ([4]; intraduodenal dose 10 mg./kg.): +

Compound: CCCCC[C@H](O)CC[C@H]1CCC2(OCC(C)(C)CO2)[C@@H]1CCCCCCC(=O)O [9,9-(2,2-dimethylpropylenedioxy)-15(S)-hydroxy-prostanoic acid]
Bronchodilator potency, Spasmogenic Agent 5-Hydroxytryptamine ([4]; intraduodenal dose 10 mg./kg.): +
inhibition in vivo at 10 mg/kg [1, 7]: 32%
Bronchodilator potency, Spasmogenic Agent Histamine [2]: +

Compound: CCCCC[C@H](O)CC[C@H]1CCC2(OCCS2)[C@@H]1CCCCCCC(=O)O (stereo partly drawn) [l-9,9-(ethyleneoxythia)-15(S)-hydroxy-prostanoic acid]
inhibition in vivo at 10 mg/kg [1, 7]: 39%
Bronchodilator potency, Spasmogenic Agent Histamine [2]: +

Compound: CCCCC[C@@H](CC[C@H]1CCC2(OC(C)C(C)O2)[C@@H]1CCCCCCC(=O)OC)OC(C)=O (stereo partly drawn) [l methyl 9,9-(1,2-dimethylethylenedioxy)-15(S)-acetoxyprostanoate]
inhibition in vivo at 10 mg/kg [1, 7]: 74%
ED50 [1, 8]: 7 mg/kg
ED50 [1, 9]: 7 mg/kg

Compound: CCCCC[C@H](O)CC[C@H]1CCC2(OCC(CCl)O2)[C@@H]1CCCCCCC(=O)O (stereo partly drawn) [l-9,9-(1-chloromethylethylenedioxy)-15(S)-hydroxy-prostanoic acid]
Bronchodilator potency, Spasmogenic Agent 5-Hydroxytryptamine ([4]; intraduodenal dose 3.2 mg./kg.): ++++
inhibition in vivo at 10 mg/kg [1, 7]: 99%
ED50 [1, 8]: 6 mg/kg
ED50 [1, 9]: 6 mg/kg

Compound: CCCCC[C@H](O)CC[C@H]1CCC2(OCC(C)O2)[C@@H]1CCCCCCC(=O)O (stereo partly drawn) [l-15(S)-hydroxy-9,9-(1-methylethylenedioxy)-prostanoic acid]
inhibition in vivo at 10 mg/kg [1, 7]: 61%
ED50 [5]: 0.000104 mg/kg
ED50 [6]: 0.000644 mg/kg

Compound: CCCCC[C@@H](CC[C@H]1CCC2(OCC(CCl)O2)[C@@H]1CCCCCCC(=O)OC)OC(C)=O (stereo partly drawn) [l methyl-9,9-(1-chloromethylethylenedioxy)-15(S)-acetoxy-prostanoate]
inhibition in vivo at 10 mg/kg [1, 7]: 26%
Bronchodilator potency, Spasmogenic Agent Histamine [2]: +

Compound: CCCCC[C@@H](CC[C@H]1CCC2(OCCO2)[C@@H]1CCCCCCC(=O)OC)OC(C)=O [l methyl 9,9-ethylenedioxy-15(S)-acetoxy-prostanoate]
inhibition in vivo at 10 mg/kg [1, 7]: 100%
ED50 ([1]; 2 h, Table B, intraduodenal route, after 120 minutes, read-out: ED50 (inhibition of total acid output)): 3 mg/kg
ED50 [1, 9]: 3 mg/kg

Compound: CCCCC[C@@H](CC[C@H]1CCC2(SCCS2)[C@@H]1CCCCCCC(=O)OC)OC(C)=O [l methyl 9,9-ethylenedithia-15(S)-acetoxy-prostanoate]
inhibition in vivo at 10 mg/kg [1, 7]: 32%

Compound: CCCCC[C@H](O)CC[C@H]1CCC2(OC(C)C(C)O2)[C@@H]1CCCCCCC(=O)O (stereo partly drawn) [l-9,9-(1,2-dimethylethylenedioxy)-15(S)-hydroxy-prostanoic acid]
inhibition in vivo at 10 mg/kg [1, 7]: 57%
ED50 [1, 8]: < 8 mg/kg
ED50 [1, 9]: 8 mg/kg
Bronchodilator potency, Spasmogenic Agent Histamine [2]: +
